From ChEMBL document CHEMBL1201862, “PubChem BioAssay data set” (2004)
Activity calls are given as the source filed them.

Experiments:
[1] = ZM109 Env clade C HIV-1 fusion inhibitors, dose response, HeLa effector, CEM target cells, luciferase, cherry-pick (AID 652058); assay type: functional, cell-based
[2] = inhibitors of HIV Env-driven cell fusion, dose response, cherry-pick (AID 652057); assay type: functional, cell-based
[3] = inhibitors of clade B AD8 Env fusion, dose response, cell-based, cherry-pick (AID 652062); assay type: functional;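 further: luciferase signal from cell-cell fusion driven by HIV-1 clade B AD8 Env; potency is for inhibitors of fusion seen as a drop in luminescence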
[4] = off-target signal loss in HeLa-CEM21 co-culture – HeLa F-luc CTL cells, cherry-picked, counter-screen for HIV-1 Env fusion inhibitor project, dose response (AID 652040); assay type: functional, cell-based;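 further: potency for signal decrease marking cytotoxic or nonspecific inhibition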
[5] = CEM21 lymphoblast cell cytotoxicity, dose response, cytotoxicity control for viral fusion inhibitor project, CellTiter-Glo luminescence, cherry-picked (AID 652042); assay type: functional, cell-based;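 further: potency for signal decrease meaning cytotoxicity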
[6] = molecular target: Cytochrome P450 2C9 (Homo sapiens, UniProt P11712)
Sequence of Cytochrome P450 2C9 (P11712 whole entry): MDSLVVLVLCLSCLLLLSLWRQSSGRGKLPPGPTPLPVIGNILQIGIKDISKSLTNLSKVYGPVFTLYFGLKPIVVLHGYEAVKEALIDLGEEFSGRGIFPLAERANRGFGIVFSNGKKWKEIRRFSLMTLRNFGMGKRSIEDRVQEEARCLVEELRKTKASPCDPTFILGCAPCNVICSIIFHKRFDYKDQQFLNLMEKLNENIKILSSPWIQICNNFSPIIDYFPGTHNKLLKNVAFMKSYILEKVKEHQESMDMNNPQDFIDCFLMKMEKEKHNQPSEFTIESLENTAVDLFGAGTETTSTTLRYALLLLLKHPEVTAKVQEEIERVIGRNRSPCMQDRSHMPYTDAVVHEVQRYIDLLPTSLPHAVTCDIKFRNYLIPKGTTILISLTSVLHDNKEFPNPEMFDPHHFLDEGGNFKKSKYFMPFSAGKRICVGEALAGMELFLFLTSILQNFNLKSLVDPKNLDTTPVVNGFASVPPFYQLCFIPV

[7] = molecular target: Cytochrome P450 2C19 (Homo sapiens, UniProt P33261); experiment: Cytochrome panel assay with activity outcomes. Panel member name: p450-cyp2c19 Compounds with AC50 equal or less than 10 uM are considered active; assay type: functional
Sequence of Cytochrome P450 2C19 (P33261 whole entry): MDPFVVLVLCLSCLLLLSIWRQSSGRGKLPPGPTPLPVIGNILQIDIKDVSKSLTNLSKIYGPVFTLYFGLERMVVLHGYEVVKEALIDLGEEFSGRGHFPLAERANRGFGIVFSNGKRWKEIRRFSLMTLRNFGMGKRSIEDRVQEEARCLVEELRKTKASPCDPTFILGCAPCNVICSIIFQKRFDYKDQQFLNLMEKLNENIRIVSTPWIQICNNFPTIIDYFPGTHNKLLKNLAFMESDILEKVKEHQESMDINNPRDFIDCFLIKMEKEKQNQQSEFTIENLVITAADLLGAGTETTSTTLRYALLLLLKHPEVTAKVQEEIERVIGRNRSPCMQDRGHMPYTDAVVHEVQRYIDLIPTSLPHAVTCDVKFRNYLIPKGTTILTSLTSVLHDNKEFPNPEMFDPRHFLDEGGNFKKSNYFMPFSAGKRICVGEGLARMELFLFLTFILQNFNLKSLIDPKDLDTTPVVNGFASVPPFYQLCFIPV

[8] = molecular target: T1, Protein RecA (Mycobacterium tuberculosis, UniProt P9WHJ3); experiment: Fluorescence Cell-Free Homogeneous Dose Retest to Identify Inhibitors of RecA-Intein Splicing Activity. [Related pubchem assays (depositor defined):AID2097, AID2223, AID489010, AID492950]; assay type: functional
T1 sequence (P9WHJ3 whole entry): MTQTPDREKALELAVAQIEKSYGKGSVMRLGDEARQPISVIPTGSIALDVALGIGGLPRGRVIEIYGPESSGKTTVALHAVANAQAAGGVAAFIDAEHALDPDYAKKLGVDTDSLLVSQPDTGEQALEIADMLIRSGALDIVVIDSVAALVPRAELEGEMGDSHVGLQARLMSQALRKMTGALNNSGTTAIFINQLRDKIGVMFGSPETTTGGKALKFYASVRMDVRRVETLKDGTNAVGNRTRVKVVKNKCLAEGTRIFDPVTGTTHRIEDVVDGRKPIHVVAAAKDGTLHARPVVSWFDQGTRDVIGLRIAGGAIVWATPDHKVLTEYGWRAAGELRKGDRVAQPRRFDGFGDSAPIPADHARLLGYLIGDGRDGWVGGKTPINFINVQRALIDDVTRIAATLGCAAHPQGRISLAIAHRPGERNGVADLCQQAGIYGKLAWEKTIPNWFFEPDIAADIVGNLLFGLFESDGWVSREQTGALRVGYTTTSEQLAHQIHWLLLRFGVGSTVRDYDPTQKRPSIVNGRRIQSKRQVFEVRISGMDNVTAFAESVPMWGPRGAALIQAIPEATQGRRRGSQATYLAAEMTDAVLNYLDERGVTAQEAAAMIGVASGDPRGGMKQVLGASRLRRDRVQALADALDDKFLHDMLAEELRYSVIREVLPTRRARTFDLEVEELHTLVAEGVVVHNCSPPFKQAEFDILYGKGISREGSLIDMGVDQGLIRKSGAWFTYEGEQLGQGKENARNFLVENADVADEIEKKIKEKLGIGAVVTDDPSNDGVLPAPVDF

[9] = molecular target: T2, Heat shock factor protein 1 (Mus musculus, UniProt P38532); experiment: HSF1 potentiators in luciferase reporter cells, confirmation, cell-based, NIH3T3, luminescence, dose retest (AID 435004); assay type: functional;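 further: stress induced by proteasome inhibitor MG132 added 30 min after compound; luciferase reporter driven by HSF1 response element in NIH3T3 cells; actives raise luminescence as potentiators of the MG132 stress response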
T2 sequence (P38532 whole entry): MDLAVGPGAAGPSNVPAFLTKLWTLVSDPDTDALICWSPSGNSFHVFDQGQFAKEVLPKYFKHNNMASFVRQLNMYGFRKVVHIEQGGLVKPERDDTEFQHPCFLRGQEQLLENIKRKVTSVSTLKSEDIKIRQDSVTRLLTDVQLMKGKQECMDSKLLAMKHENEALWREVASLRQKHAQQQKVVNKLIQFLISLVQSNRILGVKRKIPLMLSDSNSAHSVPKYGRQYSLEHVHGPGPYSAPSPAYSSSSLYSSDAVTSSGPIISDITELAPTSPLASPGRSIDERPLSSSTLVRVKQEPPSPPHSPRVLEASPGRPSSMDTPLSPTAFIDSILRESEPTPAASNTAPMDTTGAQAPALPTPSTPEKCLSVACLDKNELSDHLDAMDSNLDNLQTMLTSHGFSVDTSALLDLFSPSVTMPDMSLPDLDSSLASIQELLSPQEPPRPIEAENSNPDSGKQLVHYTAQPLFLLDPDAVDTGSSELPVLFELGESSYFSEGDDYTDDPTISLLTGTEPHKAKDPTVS

[10] = molecular target: T3, Replicative DNA helicase DnaB (Mycobacterium tuberculosis, UniProt P9WMR3); experiment: DnaB intein splicing inhibitors, dose response, biochemical, cell-free fluorescence (AID 449749); assay type: functional
T3 sequence (P9WMR3 whole entry): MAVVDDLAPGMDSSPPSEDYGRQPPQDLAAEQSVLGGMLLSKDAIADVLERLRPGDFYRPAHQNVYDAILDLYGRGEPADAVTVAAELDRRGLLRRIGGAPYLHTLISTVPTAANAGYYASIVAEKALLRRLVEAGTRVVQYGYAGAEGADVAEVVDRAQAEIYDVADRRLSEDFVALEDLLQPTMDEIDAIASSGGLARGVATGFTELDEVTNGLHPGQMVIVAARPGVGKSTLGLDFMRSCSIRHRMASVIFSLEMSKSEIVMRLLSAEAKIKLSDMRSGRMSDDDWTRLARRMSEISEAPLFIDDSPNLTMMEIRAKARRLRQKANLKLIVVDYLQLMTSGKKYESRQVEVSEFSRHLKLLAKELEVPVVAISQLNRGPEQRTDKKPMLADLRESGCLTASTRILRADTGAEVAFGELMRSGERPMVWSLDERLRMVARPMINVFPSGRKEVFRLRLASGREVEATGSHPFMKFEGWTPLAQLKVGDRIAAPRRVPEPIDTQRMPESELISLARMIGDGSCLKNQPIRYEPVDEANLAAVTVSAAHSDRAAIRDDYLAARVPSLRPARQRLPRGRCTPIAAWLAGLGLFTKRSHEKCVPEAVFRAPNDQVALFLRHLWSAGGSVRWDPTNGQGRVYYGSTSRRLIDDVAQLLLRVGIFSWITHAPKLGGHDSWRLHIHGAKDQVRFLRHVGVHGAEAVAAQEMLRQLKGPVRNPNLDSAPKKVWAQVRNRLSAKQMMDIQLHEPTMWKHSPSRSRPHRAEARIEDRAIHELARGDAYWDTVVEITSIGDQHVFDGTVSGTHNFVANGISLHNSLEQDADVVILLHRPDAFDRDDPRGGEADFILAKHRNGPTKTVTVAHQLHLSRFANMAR

[11] = molecular target: Cytochrome P450 3A4 (Homo sapiens, UniProt P08684);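 further: CYP3A4 tested as one member of a cytochrome P450 panel screen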
Sequence of Cytochrome P450 3A4 (P08684 whole entry): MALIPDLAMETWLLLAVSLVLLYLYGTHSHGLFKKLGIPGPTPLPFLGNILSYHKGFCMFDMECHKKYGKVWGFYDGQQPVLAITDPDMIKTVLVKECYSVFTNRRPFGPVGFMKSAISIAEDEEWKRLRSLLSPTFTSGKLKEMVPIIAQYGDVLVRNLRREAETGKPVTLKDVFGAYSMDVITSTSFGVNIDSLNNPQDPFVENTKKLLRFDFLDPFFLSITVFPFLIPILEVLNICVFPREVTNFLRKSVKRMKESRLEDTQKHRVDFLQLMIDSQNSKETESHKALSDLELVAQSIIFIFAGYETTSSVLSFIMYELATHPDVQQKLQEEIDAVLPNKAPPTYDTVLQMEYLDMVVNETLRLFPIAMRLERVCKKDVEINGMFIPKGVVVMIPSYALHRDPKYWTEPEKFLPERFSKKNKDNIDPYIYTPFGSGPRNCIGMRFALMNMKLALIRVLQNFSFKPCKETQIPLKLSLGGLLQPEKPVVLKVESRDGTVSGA

[12] = molecular target: T4, Cytochrome P450 1A2 (Homo sapiens, UniProt P05177);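 further: PubChem cytochrome P450 panel assay, CYP1A2 panel member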
T4 sequence (P05177 whole entry): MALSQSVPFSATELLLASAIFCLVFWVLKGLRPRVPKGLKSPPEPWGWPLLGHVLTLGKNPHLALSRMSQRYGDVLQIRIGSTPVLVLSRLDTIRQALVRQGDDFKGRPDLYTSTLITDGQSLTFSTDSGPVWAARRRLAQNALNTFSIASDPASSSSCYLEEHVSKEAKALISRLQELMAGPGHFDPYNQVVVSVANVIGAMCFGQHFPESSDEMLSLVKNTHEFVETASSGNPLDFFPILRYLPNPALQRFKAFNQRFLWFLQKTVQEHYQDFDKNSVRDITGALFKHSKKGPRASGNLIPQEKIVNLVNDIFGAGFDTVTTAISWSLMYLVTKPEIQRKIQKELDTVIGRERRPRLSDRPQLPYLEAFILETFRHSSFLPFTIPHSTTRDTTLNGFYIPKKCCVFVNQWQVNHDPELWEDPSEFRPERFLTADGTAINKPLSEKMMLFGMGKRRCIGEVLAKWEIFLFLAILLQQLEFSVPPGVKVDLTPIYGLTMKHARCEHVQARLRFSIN

[13] = molecular target: Cytochrome P450 2D6 (Homo sapiens, UniProt P10635);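 further: CYP2D6 member of a cytochrome P450 panel assay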
Sequence of Cytochrome P450 2D6 (P10635 whole entry): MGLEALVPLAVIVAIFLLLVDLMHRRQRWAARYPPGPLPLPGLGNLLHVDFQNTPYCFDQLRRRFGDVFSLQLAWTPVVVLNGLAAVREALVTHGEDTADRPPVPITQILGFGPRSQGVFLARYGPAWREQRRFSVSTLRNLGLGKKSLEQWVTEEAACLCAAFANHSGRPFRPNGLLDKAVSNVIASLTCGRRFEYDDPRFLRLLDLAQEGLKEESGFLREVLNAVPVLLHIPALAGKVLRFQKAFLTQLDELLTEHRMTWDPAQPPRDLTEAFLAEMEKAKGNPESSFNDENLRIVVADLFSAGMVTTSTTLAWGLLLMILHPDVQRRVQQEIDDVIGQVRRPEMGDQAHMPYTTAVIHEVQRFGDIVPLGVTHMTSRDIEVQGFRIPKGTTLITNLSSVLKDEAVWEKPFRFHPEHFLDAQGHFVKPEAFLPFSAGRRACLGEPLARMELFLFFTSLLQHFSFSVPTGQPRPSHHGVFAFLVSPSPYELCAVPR

[14] = molecular target: FAD-linked sulfhydryl oxidase ALR (Homo sapiens, UniProt P55789); experiment: inhibitors of human ALR sulfhydryl oxidase, dose response, biochemical, H2O2 detection, luminescence, cherry-pick (AID 493248)
Sequence of FAD-linked sulfhydryl oxidase ALR (P55789 whole entry): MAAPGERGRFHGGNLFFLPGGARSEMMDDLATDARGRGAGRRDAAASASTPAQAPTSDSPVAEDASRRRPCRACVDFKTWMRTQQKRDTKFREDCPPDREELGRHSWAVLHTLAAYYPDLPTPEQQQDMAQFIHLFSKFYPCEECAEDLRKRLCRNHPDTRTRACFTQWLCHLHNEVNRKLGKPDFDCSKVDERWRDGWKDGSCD

[15] = microbe, parasite or virus in culture; assay type: functional; conditions: Mycobacterium tuberculosis
[16] = test system: INS1; experiment: beta cell apoptosis inhibitors, cytokine rescue, dose response, luminescence, retest (AID 449756); assay type: functional, cell-based; conditions: Rattus norvegicus;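 further: cell death triggered by IL-1 beta plus TNF-alpha plus IFN-gamma mixture; protective hits raise ATP signal compared with cytokine alone wells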

**Q.** Which results are given for `CCc1ccc(CN2CCN(C(=O)c3cccc(OC)c3OC)CC2)cc1`?
**A.** AC50 [1]: 2.01 µM (active); AC50 [2]: 1.66 µM (active); AC50 [3]: 11.8 µM (active); AC50 [4]: 26.2 µM (active); AC50 [5]: 67.5 µM (active)

**Q.** Which results are given for `Cl.OC1(c2ccc(F)cc2)CCNC1` (configuration not stated)?
**A.** AC50 [6]: inconclusive; AC50 [7]: inconclusive

**Q.** Which AC50 [1] does the source give for `Cc1ccc(S(=O)(=O)c2c(N)n(CCC(C)C)c3nc4ccccc4nc23)cc1` here?
**A.** 24.9 µM (active)

**Q.** What about the AC50 [2] of the same compound?
**A.** 9.53 µM (active)

**Q.** And the AC50 [3]?
**A.** 35.4 µM (active)

**Q.** And the EC50 [8]?
**A.** 3.98 µM (active)

**Q.** And the AC50 [4]?
**A.** 18.6 µM (active)

**Q.** What about the EC50 [9] of the same compound?
**A.** > 260 µM (inactive)

**Q.** What about the AC50 [5] of the same compound?
**A.** 22.7 µM (active)

**Q.** And the AC50 [10]?
**A.** > 380 µM (inactive)

**Q.** What does the source list for `Cc1ccc(NC(S)=NCCN2CCOCC2)cc1C`?
**A.** AC50 [6]: inconclusive; AC50 [11]: 15.8 µM (inconclusive)

**Q.** For `COc1ccccc1-c1cc(C(=O)Nc2cc(C)n(Cc3ccc(Cl)cc3)n2)no1`, which AC50 [6] is on record?
**A.** inconclusive

**Q.** What about the AC50 [12] of the same compound?
**A.** 0.794 µM (inconclusive)

**Q.** What about the AC50 [13] of the same compound?
**A.** 0.891 µM (inconclusive)

**Q.** Which AC50 [6] does the source give for `O=C(Cc1ccccc1)N/N=C/C=C/c1cccc([N+](=O)[O-])c1` here?
**A.** inconclusive

**Q.** And the AC50 [12]?
**A.** 15.8 µM (inconclusive)

**Q.** What about the AC50 [7] of the same compound?
**A.** inconclusive

**Q.** Which AC50 [14] does the source give for `CC(=O)Nc1ccc2c(c1)nc1n2CCSC1` here?
**A.** 0.34 µM (active)

**Q.** For `COc1ccccc1NC(=O)c1nn(-c2cccc(C(F)(F)F)c2)ccc1=O`, which AC50 [6] is on record?
**A.** inconclusive

**Q.** With `CC(C)Cn1c(SCC(=O)c2c(N)n(C)c(=O)n(C)c2=O)nc2ccccc21` as the compound, how does the AC50 [6] read?
**A.** inconclusive

**Q.** What about the AC50 [12] of the same compound?
**A.** 25.1 µM (inconclusive)

**Q.** What does the source list for `Cc1cccc(CNc2ncnc3ccc(-c4ccc5c(c4)OCCO5)cc23)c1`?
**A.** CC50 [15]: > 40 µM (active); AC50 [1]: 5.84 µM (active); AC50 [2]: 27.9 µM (active); AC50 [3]: 8.48 µM (active); AC50 [16]: 7.74 µM (active); AC50 [4]: > 70 µM (inactive); AC50 [5]: 5.98 µM (active)

**Q.** With `CSc1nc(O)c(Nc2cccc(Cl)c2)c(O)n1` as the compound, how does the AC50 [14] read?
**A.** 1.14 µM (active)

**Q.** And the EC50 [8]?
**A.** 1.92 µM (active)

**Q.** What about the AC50 [10] of the same compound?
**A.** 64.9 µM (active)
